Source: patent US20080069869A1, “Formulations and methods for modulating satiety” (priority 2004, published 2008)
Like-named read-outs stand apart in the source and are kept apart here.

Tests used:
[1] = test system: pancreatic amylase secretion; conditions: Crawley and Corwin; cited from earlier work
[2] = in vivo; cited from earlier work
[3] = Pharmacokinetic study: plasma CCK-8 levels after one oral enteric-coated capsule (Example 3); assay type: in vivo, human
Procedure: Secondarily, it was desired to ascertain the time it would take to reach peak plasma levels. Each individual ingested the capsule in the fasting state (not having eaten for at least 8 hours). Blood was then drawn every 10 minutes for one hour. […] Plasma was drawn off from each tube and frozen. The frozen plasma was sent to Mt. Sinai Hospital in Canada for measurement of CCK-8 levels.

[4] = cited from earlier work
[5] = target: T1, CCKA receptors (Homo sapiens, UniProt P32238); conditions: de Montigny 1989; cited from earlier work
T1 sequence (P32238 1-428): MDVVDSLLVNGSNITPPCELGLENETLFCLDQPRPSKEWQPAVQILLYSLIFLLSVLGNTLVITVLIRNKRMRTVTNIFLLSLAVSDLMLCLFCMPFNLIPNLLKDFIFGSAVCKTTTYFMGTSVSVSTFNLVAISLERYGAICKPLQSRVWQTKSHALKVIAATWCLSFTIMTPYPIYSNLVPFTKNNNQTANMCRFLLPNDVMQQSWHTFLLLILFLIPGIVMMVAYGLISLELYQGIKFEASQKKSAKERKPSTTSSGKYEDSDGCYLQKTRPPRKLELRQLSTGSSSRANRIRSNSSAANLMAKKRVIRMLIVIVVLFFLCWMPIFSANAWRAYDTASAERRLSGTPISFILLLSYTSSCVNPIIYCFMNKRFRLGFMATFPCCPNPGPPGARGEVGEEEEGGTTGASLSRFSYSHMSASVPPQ

Asp-Tyr(SO3H)-Met-Gly-Trp-Met-Asp-Phe-NH2 [CCK-8]
more potent than unsulfated CCK-8 or CCK-4 in stimulating pancreatic amylase secretion [1]: approximately 1000 fold
oral bio-availability [2]: less than 1%
CCK-8 level (plasma) ([3]; Individual #1, 10 minutes post-ingestion, one enteric-coated capsule with 9.2 micrograms CCK-8 and an enzyme inhibitor, fasting): 3.268 picomoles/liter (pm/L)
CCK-8 level (plasma) ([3]; Individual #1, remaining 5 measurements (every 10 minutes up to one hour), 9.2 micrograms capsule with enzyme inhibitor): detected no CCK-8
CCK-8 level (plasma) ([3]; Individual #2, 10 minutes post-ingestion, 9.2 micrograms capsule with enzyme inhibitor, fasting): 0.7625 pm/L
CCK-8 level (plasma) ([3]; Individual #2, 20 minutes, 9.2 micrograms capsule with enzyme inhibitor, fasting): 3.326 pm/L
CCK-8 level (plasma) ([3]; Individual #2, next 4 measurements (30-60 minutes)): detected no CCK-8
CCK-8 level (plasma) ([3]; Individual #3 (BMI 24), 10 minutes post-ingestion, 9.2 micrograms capsule with enzyme inhibitor, fasting): 0.0 pm/L
CCK-8 level (plasma) ([3]; Individual #3 (BMI 24), 20 minutes, 9.2 micrograms capsule with enzyme inhibitor, fasting): 4.375 pm/L
CCK-8 level (plasma) ([3]; Individual #3, next 4 measurements (30-60 minutes)): detected no CCK-8

O[C@H](CS)[C@H](O)CS (racemic) [dithiothreitol]
increase in absorption and biliary recovery of a tripeptide over control rats ([4]; ileum): four-fold
increase in absorption and biliary recovery of a tripeptide over control rats ([4]; proximal colon): 70 fold

CCK-4: the tetrapeptide, CCK-4 (CCK30-33)
lower affinity for CCKA receptors than the sulfated form of CCK-8 [5]: 10,000 fold
